Source: US6492365B1, “Microsomal triglyceride transfer protein” (Bristol-Myers Squibb Company, priority 1992, dated 2002)
Where a name gives a salt, the structure may show the parent alone.

Row | melting point | SMILES
1 | 231 to 235 °C | O=C1c2ccccc2CN1C1CCN(CC=C(c2ccccc2)c2ccccc2)CC1 (as salt: hydrochloride) [Example 11, 2-[1-(3,3-Diphenyl-2-propenyl)-4-piperidinyl]-2,3-dihydro-1H-isoindol-1-one, monohydrochloride]
2 | 271 to 274 °C | O=C1c2ccccc2CN1C1CCN(Cc2ccccc2)CC1 (as salt: hydrochloride) [Example 13, 2,3-Dihydro-2-[1-(phenylmethyl)-4-piperidinyl]-1H-isoindol-1-one, monohydrochloride]
3 | 229 to 231 °C | O=C1c2ccccc2CN1C1CCN(CCCc2ccccc2)CC1 (as salt: hydrochloride) [Example 14, 2,3-Dihydro-2-[1-(3-phenylpropyl)-4-piperidinyl]-1H-isoindol-1-one, monohydrochloride]
4 | 185 to 187 °C | CCCCC(CCCC)CCN1CCC(N2Cc3ccccc3C2=O)CC1 (as salt: hydrochloride) [Example 17, 2-[1-(3-Butylheptyl)-4-piperidinyl]-2,3-dihydro-1H-isoindol-1-one, monohydrochloride]
5 | 215 to 218 °C | O=C1c2ccccc2CN1C1CCN(C/C=C/c2ccccc2Oc2ccccc2)CC1 (as salt: hydrochloride) [Example 20, (E)-2,3-Dihydro-2-[1-[3-(2-phenoxyphenyl)-2-propenyl]-4-piperidinyl]-1H-isoindol-1-one, monohydrochloride]
6 | 191 to 195 °C | COc1ccccc1CCCN1CCC(N2Cc3ccccc3C2=O)CC1 (as salt: hydrochloride) [Example 21, 2,3-Dihydro-2-[1-[3-(2-methoxyphenyl)propyl]-4-piperidinyl]-1H-isoindol-1-one, monohydrochloride]
7 | 243 to 246 °C | O=C1CC(CN2CCN(c3ccccc3)CC2)Cc2ccccc21 (centres unmarked) (as salt: hydrochloride) [Example 23, 3,4-Dihydro-3-[(4-phenyl-1-piperazinyl)methyl]-1-(2H)-naphthalenone, monohydrochloride]
8 | 197 to 199 °C | COc1ccccc1N1CCN(C(=O)C2CC(=O)c3ccccc3C2)CC1 (centres unmarked) (as salt: hydrochloride) [Example 25, 3,4-Dihydro-3-[[4-(2-methoxyphenyl)-1-piperazinyl]-carbonyl]-1(2H)-naphthalenone, monohydrochloride]
9 | 211 to 212 °C | O=C1CC(CN2CCN(C(c3ccccc3)c3ccc(Cl)cc3)CC2)Cc2cc(F)ccc21 (centres unmarked) (as salt: hydrochloride) [Example 27, 3-[[4-[(4-Chlorophenyl)phenylmethyl]-1-piperazinyl]methyl]-6-fluoro-3,4-dihydro-1(2H)-naphthalenone, dihydrochloride]
10 | 180 to 182 °C | COc1ccc(C(C(=O)NC2CCN(CCc3ccccc3)CC2)c2ccc(OC)cc2)cc1 (as salt: hydrochloride) [Example 29, 4-Methoxy-α-(4methoxyphenyl)-N-[1-(2-phenylethyl)-4-piperidinyl]benzeneacetamide, monohydrochloride]
11 | 263 to 264 °C | O=C(NC1CCN(CCc2ccccc2)CC1)C(c1ccccc1)c1ccccc1 (as salt: hydrochloride) [Example 30, α-Phenyl-N-[1-(phenylethyl)-4-piperidinyl]-benzeneacetamide, monohydrochloride]
12 | 269 to 271 °C | O=C1c2ccc(Cl)cc2CN1C1CCN(Cc2ccccc2)CC1 (as salt: hydrochloride) [Example 31, 5-Chloro-2,3-dihydro-2-[1-(phenylmethyl)-4-piperidinyl]-1H-isoindol-1-one, monohydrochloride]
13 | 147 to 152 °C | CCCCC(=CCN1CCC(N2Cc3ccccc3C2=O)CC1)CCCC (as salt: hydrochloride) [Example 32, 2-[1-(3-Butyl-2-heptenyl)-4-piperidinyl]-2,3-dihydro-1H-isoindol-1-one, monohydrochloride]
14 | 127 to 134 °C | O=C1c2ccccc2CN1C1CCN(C/C=C/CC(c2ccccc2)c2ccccc2)CC1 (as salt: hydrochloride) [Example 33, 2-[1-(5,5-Diphenyl-2-pentenyl)-4-piperidinyl]-2,3-dihydro-1H-isoindol-1-one, monohydrochloride]
15 | 199 to 202 °C | O=C1c2ccccc2CN1C1CCN(CCCc2ccccc2Oc2ccccc2)CC1 (as salt: hydrochloride) [Example 34, 2,3-Dihydro-2-[1-[3-(2-phenoxyphenyl)propyl]-4-piperidinyl]-1H-isoindol-1-one, monohydrochloride]
16 | 165 to 169 °C | O=C1c2ccccc2CN1C1CCN(C(c2ccccc2)c2ccccc2)CC1 (as salt: hydrochloride) [Example 35, 2,3-Dihydro-2-[1-(diphenylmethyl)-4-piperidinyl]-1H-isoindol-1-one, monohydrochloride]
17 | 174 to 177 °C | O=C1c2ccccc2CN1C1CCN(C/C=C\CC(c2ccccc2)c2ccccc2)CC1 (as salt: hydrochloride) [Example 36, (Z)-2,3-Dihydro-2-[1-(5,5-diphenyl-2-pentenyl)-4-piperidinyl]-1H-isoindol-1-one, monohydrochloride]
18 | 170 to 172 °C | COc1ccccc1C(=O)NC1CCN(CCC(c2ccccc2)c2ccccc2)CC1 (as salt: hydrochloride) [Example 38, N-[1-(3,3-Diphenylpropyl)-4-piperidinyl]-2-methoxybenzamide, monohydrochloride]
19 | 109 to 116 °C | O=C(NC1CCN(CCC(c2ccccc2)c2ccccc2)CC1)c1ccccn1 (as salt: hydrochloride) [Example 40, N-[1-(3,3-Diphenylpropyl)-4-piperidinyl]-2-pyridineamide, monohydrochloride]
20 | 102 to 105 °C | CC(=O)N(Cc1ccccc1)C1CCN(CCC(c2ccccc2)c2ccccc2)CC1 (as salt: hydrochloride) [Example 41, N-[1-(3,3-Diphenylpropyl)-4-piperidinyl]-N-(phenylmethyl)acetamide, monohydrochloride]
21 | 115 to 120 °C | O=C(c1ccccc1)N(Cc1ccccc1)C1CCN(CCC(c2ccccc2)c2ccccc2)CC1 (as salt: hydrochloride) [Example 42, N-[1-(3,3-Diphenylpropyl)-4-piperidinyl]-N-(phenylmethyl)benzamide, monohydrochloride]
22 | 111 to 113 °C | COc1ccccc1N1CCN(CC2CC(=O)c3ccc(F)cc3C2)CC1 (centres unmarked) [Example 22, 6-Fluoro-3,4-dihydro-3-[[4-(2-methoxyphenyl)-1-piperazinyl]-methyl]-1(2H)-naphthalenone]
23 | 153 to 154 °C | O=C(Cc1c[nH]c2ccccc12)NC1CCN(Cc2ccccc2)CC1 [Example 28, N-[1-(Phenylmethyl)-4-piperidinyl]-1H-indole-3-acetamide]
